Results reported in paper PMC2765658 (Chemical communications (Cambridge, England), 2009).
Square brackets hold non-standard residues; d marks the D form. Peptide text beside a SMILES is read from it. Aib = CC(C)(N)C(=O)O

Assay: Thermal melting followed by CD ellipticity
Assay type: physicochemical
Details: CD ellipticity followed over 20 - 85 °C; 100 μM peptide in 20% TFE/H2O

In the case of CC(=O)NCCCC[C@H](NC(=O)[C@@H](NC(C)=O)C(C)C)C(=O)N[C@@H](CC(C)C)C(=O)NC(C)(C)C(=O)N[C@H](C(=O)N[C@@H](CCCCNC(C)=O)C(=O)N[C@@H](CC(C)C)C(N)=O)C(C)C [compound 17, Ac-Val-Lys(Ac)-Leu-Aib-Val-Lys(Ac)-Leu-NH2] (Ac-VK(Ac)L[Aib]VK(Ac)L-NH2), the “thermal melting point (Tm)” value is reported as 48 °C.
